Legend:
Type in all cases: biochemical
[1] = biological target: T1, KDR (Homo sapiens, UniProt P35968); assay: Inhibitory activity against KDR (VEGF-R2), in vitro data of Examples 170 and 207; settings: 10 μM; Examples 1 to 169; read-out: KDR inhibition at 10 μM
T1 construct: expressed in transfected cells; host or cells: CHO cells
Outline: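 KDR tyrosine phosphorylation detected by luminescence after overnight 4° C capture of 20 μg lysate protein with PY20:AP antibody. Lysates came from cells given compound for 2 h at 37° C, then final 20 ng/ml VEGF for 5 min; compound-free medium as control.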

[2] = biological target: T2, FGFR3 (K650E) (Homo sapiens, UniProt P22607, K650E); assay: Recombinant GST-FGFR-3-K650E tyrosine kinase assay (33P into poly(Glu,Tyr)); settings: 10 μM; Examples 1 to 169; read-out: FGFR3 (K650E) inhibition at 10 μM
T2 construct: amino acids 411-806 of the cytoplasmic domain of human FGFR-3, N-terminally fused to GST; made in house; host or cells: Sf9 insect cells (baculovirus)
T2 sequence (P22607 411-806 K650E): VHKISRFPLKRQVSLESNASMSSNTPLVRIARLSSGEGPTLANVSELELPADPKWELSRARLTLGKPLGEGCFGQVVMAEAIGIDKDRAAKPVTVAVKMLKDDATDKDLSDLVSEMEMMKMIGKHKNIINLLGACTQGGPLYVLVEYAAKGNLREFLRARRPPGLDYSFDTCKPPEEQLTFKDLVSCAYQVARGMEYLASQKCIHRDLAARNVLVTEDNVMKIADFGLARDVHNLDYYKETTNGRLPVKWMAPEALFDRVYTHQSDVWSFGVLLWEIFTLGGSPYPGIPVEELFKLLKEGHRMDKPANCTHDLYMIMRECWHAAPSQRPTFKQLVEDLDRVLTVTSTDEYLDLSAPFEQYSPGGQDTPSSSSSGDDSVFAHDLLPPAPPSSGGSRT

[3] = biological target: T3, Tek (Homo sapiens, UniProt Q02763); assay: Recombinant GST-Tek (Tie-2) tyrosine kinase assay (33P into poly(Glu,Tyr)); settings: Examples 1 to 169
T3 construct: amino acids 773-1124 of the cytoplasmic kinase domain of human Tek, N-terminally fused to GST; made in house; host or cells: Sf9 insect cells (baculovirus)
T3 sequence (Q02763 773-1124): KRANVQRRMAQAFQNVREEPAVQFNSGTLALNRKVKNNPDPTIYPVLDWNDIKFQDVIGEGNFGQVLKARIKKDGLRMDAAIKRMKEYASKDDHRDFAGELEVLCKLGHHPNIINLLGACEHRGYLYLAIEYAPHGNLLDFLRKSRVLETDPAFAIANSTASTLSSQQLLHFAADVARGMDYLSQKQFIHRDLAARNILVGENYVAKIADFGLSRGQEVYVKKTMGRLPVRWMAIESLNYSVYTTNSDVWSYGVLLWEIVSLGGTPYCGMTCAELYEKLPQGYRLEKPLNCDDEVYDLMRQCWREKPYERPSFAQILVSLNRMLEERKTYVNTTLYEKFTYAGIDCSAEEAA
Outline: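 GST-fused human Tek kinase domain (aa 773-1124), baculovirus-expressed, 150 ng per reaction; 10 μg/mL poly(Glu,Tyr) 4:1, 4.0 μM [γ-33P]ATP, 3 mM MnCl2/3 mM MgCl2, pH 7.5, 30 min at ambient temperature. 33P uptake read on PVDF filters; IC50 by linear regression from four concentrations in duplicate.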

T1 sequence (P35968 20-1356): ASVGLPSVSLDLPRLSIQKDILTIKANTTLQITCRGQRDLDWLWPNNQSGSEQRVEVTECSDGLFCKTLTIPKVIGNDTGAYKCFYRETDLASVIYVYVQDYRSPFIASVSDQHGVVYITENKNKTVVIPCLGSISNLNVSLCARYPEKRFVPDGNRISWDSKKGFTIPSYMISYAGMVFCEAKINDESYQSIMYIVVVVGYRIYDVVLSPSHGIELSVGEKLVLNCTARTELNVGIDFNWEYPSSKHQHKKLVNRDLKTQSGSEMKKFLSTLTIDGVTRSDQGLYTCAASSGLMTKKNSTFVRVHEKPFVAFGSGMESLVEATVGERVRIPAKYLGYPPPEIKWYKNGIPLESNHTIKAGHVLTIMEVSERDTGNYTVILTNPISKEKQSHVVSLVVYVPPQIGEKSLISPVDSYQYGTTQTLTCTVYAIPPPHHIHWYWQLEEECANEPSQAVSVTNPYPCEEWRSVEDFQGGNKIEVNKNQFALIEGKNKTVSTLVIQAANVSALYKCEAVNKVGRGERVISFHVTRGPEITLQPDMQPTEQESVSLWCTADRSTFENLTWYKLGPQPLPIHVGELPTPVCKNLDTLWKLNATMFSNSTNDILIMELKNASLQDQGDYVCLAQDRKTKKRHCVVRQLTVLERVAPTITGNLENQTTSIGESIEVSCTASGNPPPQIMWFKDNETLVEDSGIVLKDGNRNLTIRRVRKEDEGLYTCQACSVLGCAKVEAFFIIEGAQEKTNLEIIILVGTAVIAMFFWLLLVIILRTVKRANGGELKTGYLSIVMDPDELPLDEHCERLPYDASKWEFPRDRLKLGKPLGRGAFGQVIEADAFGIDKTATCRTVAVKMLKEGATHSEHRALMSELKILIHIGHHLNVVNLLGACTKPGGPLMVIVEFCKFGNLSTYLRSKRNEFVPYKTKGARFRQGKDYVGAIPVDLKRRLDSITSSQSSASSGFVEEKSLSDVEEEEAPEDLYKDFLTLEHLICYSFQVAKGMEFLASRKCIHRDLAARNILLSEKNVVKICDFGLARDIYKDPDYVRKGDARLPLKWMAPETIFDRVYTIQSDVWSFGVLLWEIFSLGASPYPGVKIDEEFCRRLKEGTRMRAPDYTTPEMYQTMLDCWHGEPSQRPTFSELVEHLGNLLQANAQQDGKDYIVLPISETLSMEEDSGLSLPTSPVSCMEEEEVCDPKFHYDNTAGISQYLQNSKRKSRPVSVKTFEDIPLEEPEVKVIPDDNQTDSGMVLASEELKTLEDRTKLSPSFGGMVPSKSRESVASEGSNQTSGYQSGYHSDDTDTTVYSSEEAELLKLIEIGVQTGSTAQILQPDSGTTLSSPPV

| inhibition at 10 µM [1] | inhibition at 10 µM [2] | inhibition at 10 µM [3] | Structure (SMILES) |
| --- | --- | --- | --- |
| 67 to 100% | 27 to 100% | 12 to 100% | CCN(C(=O)Nc1c(Cl)c(OC)cc(OC)c1Cl)c1cc(Nc2cccc(CN(C)C)c2)ncn1 [Example 151, 3-(2,6-Dichloro-3,5-dimethoxy-phenyl)-1-[6-(3-dimethylaminomethyl-phenylamino)-pyrimidin-4-yl]-1-ethyl-urea] |
| 67 to 100% | 27 to 100% | 12 to 100% | CCN(C(=O)Nc1c(Cl)c(OC)cc(OC)c1Cl)c1cc(Nc2ccc(OC3CCN(C)CC3)cc2)ncn1 [Example 166, 3-(2,6-Dichloro-3,5-dimethoxy-phenyl)-1-ethyl-{6-[4-(1-methyl-piperidin-4-yloxy)-phenylamino]-pyrimidin-4-yl}-urea] |
| 67 to 100% | 27 to 100% | 12 to 100% | CN(C(=O)Nc1c(Cl)cccc1Cl)c1cc(Nc2cccc(C#N)c2)ncn1 [Example 114, 1-[6-(3-Cyano-phenylamino)-pyrimidin-4-yl]-3-(2,6-dichloro-phenyl)-1-methyl-urea] |
| 67 to 100% | 27 to 100% | 12 to 100% | COc1ccc(OC)c(NC(=O)Nc2cc(Nc3cccc(Cl)c3)ncn2)c1 [Example 132, 1-[6-(3-Chloro-phenylamino)-pyrimidin-4-yl]-3-(2,5-dimethoxy-phenyl)-urea] |
| 67 to 100% | 27 to 100% | 12 to 100% | O=C(Nc1cc(Nc2ccc(OCCN3CCOCC3)cc2)ncn1)Nc1c(Cl)cccc1Cl [Example 96, 1-(2,6-Dichloro-phenyl)-3-{6-[4-(2-morpholin-4-yl-ethoxy)-phenylamino]-pyrimidin-4-yl}-urea] |
| 67 to 100% | 27 to 100% | 12 to 100% | O=C(Nc1cc(Nc2cccc(Cl)c2)ncn1)Nc1ccccc1C(F)(F)F [Example 133, 1-[6-(3-Chloro-phenylamino)-pyrimidin-4-yl]-3-(2-trifluoromethyl-phenyl)-urea] |
| 67 to 100% | 27 to 100% | 12 to 100% | CN(C(=O)Nc1c(Cl)cccc1Cl)c1cc(Nc2ccc(C(C)(C)O)cc2)ncn1 [Example 111, 3-(2,6-Dichloro-Phenyl)-1-{6-[4-(1-hydroxy-1-methyl-ethyl)-phenylamino]-pyrimidin-4-yl}-1-methyl-urea] |
| 67 to 100% | 27 to 100% | 12 to 100% | O=C(Nc1cc(Nc2ccc(N3CCOCC3)cc2)ncn1)Nc1c(Cl)cccc1Cl [Example 108, 1-(2,6-Dichloro-Phenyl)-3-[6-(4-morpholin-4-yl-phenylamino)-pyrimidin-4-yl]-urea] |
| 67 to 100% | 27 to 100% | 12 to 100% | CN1CCN(c2ccc(Nc3cc(NC(=O)Nc4ccccc4Cl)ncn3)cc2)CC1 [Example 93, 1-(2-Chloro-phenyl)-3-{6-[4-(4-methyl-piperazin-1-yl)-phenylamino]-pyrimidin-4-yl}-urea] |
| 67 to 100% | 27 to 100% | 12 to 100% | O=C(Nc1cccc(Cl)c1)Nc1cc(Nc2cccc(Cl)c2)ncn1 [Example 135, 1-(3-Chloro-phenyl)-3-[6-(3-chloro-phenylamino)-pyrimidin-4-yl]-urea] |
| 67 to 100% | 27 to 100% | 12 to 100% | O=C(Nc1cc(N[C@H]2CC[C@H](O)CC2)ncn1)Nc1c(Cl)cccc1Cl [Example 92, 1-(2,6-Dichloro-phenyl)-3-[6-((trans)-4-hydroxy-cyclohexylamino)-pyrimidin-4-yl]-urea] |
| 67 to 100% | 27 to 100% | 12 to 100% | CCN(CC)CCOc1ccc(Nc2cc(NC(=O)Nc3ccccc3Br)ncn2)cc1 [Example 101, 1-(2-Bromo-phenyl)-3-{6-[4-(2-diethylamino-ethoxy)-phenylamino]-pyrimidin-4-yl}-urea] |
| 67 to 100% | 27 to 100% | 12 to 100% | O=C(Nc1cc(Nc2cccc(Cl)c2)ncn1)Nc1ccccc1Cl [Example 128, 3-(2-Chloro-phenyl)-1-[6-(3-chloro-phenylamino)-pyrimidin-4-yl]-urea] |
| 67 to 100% | 27 to 100% | 12 to 100% | O=C(Nc1cc(Nc2ccc(OCCCN3CCOCC3)cc2)ncn1)Nc1ccccc1Br [Example 99, 1-(2-Bromo-phenyl)-3-{6-[4-(3-morpholin-4-yl-propoxy)-phenylamino]-pyrimidin-4-yl}-urea] |
| 67 to 100% | 27 to 100% | 12 to 100% | O=C(Nc1ccc(Cl)cc1)Nc1cc(Nc2cccc(Cl)c2)ncn1 [Example 138, 1-(4-Chloro-phenyl)-3-[6-(3-chloro-phenylamino)-pyrimidin-4-yl]-urea] |
| 67 to 100% | 27 to 100% | 12 to 100% | CCN(CC)CCOc1ccc(Nc2cc(NC(=O)Nc3c(Cl)cccc3Cl)ncn2)cc1 [Example 100, 1-(2,6-Dichloro-Phenyl)-3-{6-[4-(2-diethylamino-ethoxy)-phenylamino]-pyrimidin-4-yl}-urea] |

Further lines, the compound ahead of its results:

| Structure (SMILES) | inhibition at 10 µM [1] | inhibition at 10 µM [2] | inhibition at 10 µM [3] |
| --- | --- | --- | --- |
| COc1ccc(Cl)c(NC(=O)N(C)c2cc(Nc3cccc(N4CCN(C)CC4)c3)ncn2)c1Cl [Example 60, 3-(2,6-Dichloro-3-methoxy-phenyl)-1-methyl-1-{6-[3-(4-methyl-piperazin-1-yl)-phenylamino]-pyrimidin-4-yl}-urea] | 67 to 100% | 27 to 100% | 12 to 100% |
| CN1CCN(c2cccc(Nc3cc(NC(=O)Nc4cc(C(F)(F)F)cc(C(F)(F)F)c4)ncn3)c2)CC1 [Example 21, 1-(3,5-Bis-trifluoromethyl-phenyl)-3-{6-[3-(4-methyl-piperazin-1-yl)-phenylamino]-pyrimidin-4-yl}-urea] | 67 to 100% | 27 to 100% | 12 to 100% |
| CCN(C(=O)Nc1c(Cl)ccc(OC)c1Cl)c1cc(Nc2ccc(N3CCN(C)CC3)cc2)ncn1 [Example 59, 3-(2,6-Dichloro-3-methoxy-phenyl)-1-ethyl-1-{6-[4-(4-methyl-piperazin-1-yl)-phenylamino]-pyrimidin-4-yl}-urea] | 67 to 100% | 27 to 100% | 12 to 100% |
| COc1cc(NC(=O)Nc2cc(Nc3cccc(N4CCN(C)CC4)c3)ncn2)cc(OC)c1 [Example 19, 1-(3,5-Dimethoxy-phenyl)-3-{6-[3-(4-methyl-piperazin-1-yl)-phenyl-amino]-pyrimidin-4-yl}-urea] | 67 to 100% | 27 to 100% | 12 to 100% |
| Cc1cccc(Cl)c1NC(=O)Nc1cc(Nc2ccc(N3CCN(C)CC3)cc2)ncn1 [Example 6, 1-(2-Chloro-6-methyl-Phenyl)-3-{6-[4-(4-methyl-piperazin-1-yl)-phenyl-amino]-pyrimidin-4-yl}-urea] | 67 to 100% | 27 to 100% | 12 to 100% |
| COc1ccc(Cl)c(NC(=O)Nc2cc(Nc3cccc(N4CCN(C)CC4)c3)ncn2)c1 [Example 29, 1-(2-Chloro-5-methoxy-phenyl)-3-{6-[3-(4-methyl-piperazin-1-yl)-phenyl-amino]-pyrimidin-4-yl}-urea] | 67 to 100% | 27 to 100% | 12 to 100% |
| COc1ccc(NC(=O)Nc2cc(Nc3ccc(N4CCN(C)CC4)cc3)ncn2)cc1OC [Example 30, 1-(3,4-Dimethoxy-phenyl)-3-{6-[4-(4-methyl-piperazin-1-yl)-phenyl-amino]-pyrimidin-4-yl}-urea] | 67 to 100% | 27 to 100% | 12 to 100% |
| Cc1cc(C)cc(NC(=O)Nc2cc(Nc3cccc(N4CCN(C)CC4)c3)ncn2)c1 [Example 23, 1-(3,5-Dimethyl-Phenyl)-3-{6-[3-(4-methyl-piperazin-1-yl)-phenyl-amino]-pyrimidin-4-yl}-urea] | 67 to 100% | 27 to 100% | 12 to 100% |
| COc1cc(C)c(NC(=O)Nc2cc(Nc3ccc(N4CCN(C)CC4)cc3)ncn2)cc1OC [Example 34, 1-(4,5-Dimethoxy-2-methyl-phenyl)-3-{6-[4-(4-methyl-piperazin-1-yl)-phenyl-amino]-pyrimidin-4-yl}-urea] | 67 to 100% | 27 to 100% | 12 to 100% |
| COc1cc(NC(=O)N(CCN2CCN(C)CC2)c2cc(Nc3ccccc3)ncn2)c(Cl)c(OC)c1 [Example 57, 3-(2-Chloro-3,5-dimethoxy-phenyl)-1-[2-(4-methyl-piperazin-1-yl)-ethyl]-1-(6-phenylamino-pyrimidin-4-yl)-urea] | 67 to 100% | 27 to 100% | 12 to 100% |
| COc1cc(NC(=O)Nc2cc(Nc3cccc(N4CCN(C)CC4)c3)ncn2)c(Cl)c(OC)c1 [Example 41] | 67 to 100% | 27 to 100% | 12 to 100% |
| COc1ccc(NC(=O)Nc2cc(Nc3cccc(N4CCN(C)CC4)c3)ncn2)c(OC)c1 [Example 17, 1-(2,4-Dimethoxy-phenyl)-3-{6-[3-(4-methyl-piperazin-1-yl)-phenyl-amino]-pyrimidin-4-yl}-urea] | 67 to 100% | 27 to 100% | 12 to 100% |

Source: US8552002B2 (Novartis AG, priority 2004, dated 2013)
